Results on four molecules are retold here after paper PMC11653243, “Enhancing Phototoxicity in BODIPY‐Perylene Charge Transfer Dyads by Combined Iodination and Mesylation” (Chemistry (Weinheim an Der Bergstrasse, Germany), 2024).

In assay [1] the test system is CHO cells. Kind of assay: Phototoxicity, 470 nm LED, alamar blue assay. Type of assay: cell-based, Chinese Hamster. The conditions noted are these: 17 J/cm^2, 470 nm LED. The procedure:
The phototoxicity of the BODIPY's were assessed to compare the light induced toxicity of the iodinated compounds with their non‐iodinated counterparts. CHO and MCF‐7 cells were treated with B2P, B2PI, MB2P, and MB2PI in a concentration range from 0.10–1 μM for 17 h, the wells were decanted and filled with 100 μL phenol red free media prior to irradiation with a 470 nm LED (17 J/cm^2). Cell viability was determined using the alamar blue cell viability assay and % viability was calculated relative to untreated control wells.
(§1) Dark‐ and photo‐toxicity studies were performed by seeding CHO and MCF‐7 cells in clear 96‐well plates (Nunc) and treating with varying concentrations of B2P, MB2P, B2PI and MB2PI. Phototoxicity experiments were carried out using a 470 nm LED. For hypoxic phototoxicity studies, hypoxia was mimicked by adding CoCl2 to the cells prior to irradiation. Cell viability was determined using the alamar blue assay and absorbance measured with a BMG LABTECH CLARIOstar plate reader. […]
(§2) For 24 h dark toxicity studies, 50, 10, 5 and 1 µM stock concentrations of B2P, B2PI, MB2P and MB2PI were prepared in media to a final DMSO concentration of ≤1%. 100 µL of each concentration was added to the wells in triplicate and the plates incubated for 24 h in the dark at 37°C. Cell viability of all plate-based studies was assessed using the alamar blue assay. A 10% Resazurin-media solution (alamarBlue, Invitrogen) was added to the wells and incubated for 5 h in the absence of light. Absorbance was measured using a BMG LABTECH CLARIOstar plate reader at 570 nm and 600 nm (corrected for background subtraction). Cell viability is presented as a percentage (%) compared to untreated control wells. Plates were performed in triplicate.
Phototoxicity and dark control plates were performed by incubating CHO or MCF-7 cells with B2P, B2PI, MB2P and MB2PI for 17 h to allow uptake, emptying the wells, replacing with phenol red free media, and irradiating at a total dose of 17 ± 1.64 J/cm2 (2 h at 2.37 ± 0.23 mW/cm2) using a 470 nm LED (TeleOpto LEDA-X LED driver and array). Control plates were incubated in the dark during the irradiation period (2 h). After irradiation, the cells were incubated in the dark overnight to allow for cell recovery. Irradiation conditions were tested on untreated cells to confirm cells remained viable at this dose before any experiments were performed and each phototoxicity plate included untreated test wells for cell viability comparison. Viability was determined using the alamar blue assay as per the cytotoxicity

The subject of assay [2] is MCF‐7 spheroids. Kind of assay: Spheroid dark toxicity, CellTiter-Glo 3D. It is filed as cell-based. Conditions: Homo sapiens, MCF7, light or radiation study; MCF‐7 3D (spheroids); without irradiation. On the procedure:
3D Cell Studies: Toxicity Assays
Spheroids were seeded in a clear BIOFLOAT™ round bottom 96 well plate (Sarstedt) at 2x10^4 cells per well, centrifuged using the […] for 5 minutes at 700 rpm and allowed to grow and compact for 96 hours. A 2X concentrated solution of B2P, B2PI, MB2P or MB2PI was added in a 1:1 ratio (BODIPY:media) to each well of the 96 well plate, which contained 50 µL phenol red free media, and incubated for 24 h. Prior to irradiation 90% of the media/Ru solution was removed, replaced with fresh phenol red media to dilute the remaining BODIPY (multiple dilution steps, more required for 15 µM and above), and brought to a total volume of 100 µL. Phototoxicity studies in […] spheroids were performed as per the cell monolayer protocol with an irradiation dose of 5 J/cm2 using a 470 nm LED.
Control studies with untreated spheroids confirmed 17 J/cm2 irradiation dose was toxic to spheroids, however the spheroids remained viable after 5 J/cm2 irradiation. CellTiter-Glo 3D cell viability assay (Promega) was used to assess spheroid viability and performed as per the manufacturer’s protocol, where the CellTiter-Glo 3D reagent was added to the spheroid wells
(In general: Cellular ATP, detected with luciferase, serves as a proxy for viable cell number.)

Assay [3] deals with MCF‐7 cells. Kind of assay: Dark toxicity, 24 h, alamar blue assay. Type of assay: cell-based. Conditions: Homo sapiens, MCF7, light or radiation study, without irradiation, 24 h in the dark at 37 °C. The procedure:
(§3) Typical of many BODIPY derivatives, the BODIPY's presented in this work are insoluble in aqueous media, including PBS, and thus the main stock solutions (2–3 mM) were prepared in 100 % DMSO and diluted in media immediately before treating the cells. The maximum concentration for dark toxicity was set at 50 μM to keep the concentration of DMSO ≤1 % (v/v) to maintain cell health. As a result, it was not possible to determine an exact dark IC50 value as concentrations above 50 μM demanded DMSO concentrations that would affect the viability of the cells. Dietzek‐Ivanšić et al previously reported on the effect of DMSO on MCF‐7 cell viability, where cell viability remained high (95 %) in cells treated with 1 % DMSO in cell culture media for 24 h, whereas only 40 % of cells remained viable after treatment with 3.8 % DMSO. Working stocks in cell culture media remained stable within the incubation times used for cellular studies i. e. up to 24 h.[25]
as §1
as §2, with “triplicate. […]” for “triplicate.”
A general note: Alamar Blue is a resazurin reagent that responds to reducing activity.

Assay [4] deals with CHO cells. Kind of assay: Dark toxicity, 24 h, alamar blue assay. Type of assay: cell-based, Chinese Hamster. The conditions noted are these: Cricetulus griseus, light or radiation study, without irradiation, 24 h in the dark at 37 °C. The procedure: as §3, §1
as §2, with “triplicate. […]” for “triplicate.”

On to `CC1=C(c2ccc3c4cccc5cccc(c6cccc2c63)c54)C(C)=[N+]2C1=C(c1c(C)cc(C)cc1C)c1c(C)cc(C)n1[B-]2(F)F` [MB2P], for which the “Photo Index (PI), ratio of dark IC50 to light IC50” value (“Photo Index (PI), ratio” below) in assay [1] is above 64. The concentration for half-maximal inhibition (IC50) in assay [2], in assay [3] and in assay [4] was above 50 µM each time.
Take `CC1=C(c2ccc3c4cccc5cccc(c6cccc2c63)c54)C(C)=[N+]2C1=C(c1c(C)cc(C)cc1C)c1c(C)c(I)c(C)n1[B-]2(F)F` [MB2PI]: in assay [1], the “Photo Index (PI), ratio” value is given as above 132. Also, the IC50 in assay [2], in assay [3] and in assay [4] was above 50 µM throughout.
Turning to `CC1=CC(C)=[N+]2C1=C(c1ccccc1)c1c(C)c(-c3ccc4c5cccc6cccc(c7cccc3c74)c65)c(C)n1[B-]2(F)F` [B2P], the “Photo Index (PI), ratio” value in assay [1] was above 76. Besides, the IC50 was 46 ± 2.38 µM in assay [2], above 50 µM in assay [3] and above 50 µM in assay [4].
For `CC1=C(I)C(C)=[N+]2C1=C(c1ccccc1)c1c(C)c(-c3ccc4c5cccc6cccc(c7cccc3c74)c65)c(C)n1[B-]2(F)F` [B2PI], the “Photo Index (PI), ratio” value in assay [1] is listed as above 87. Also, the IC50 was 44 ± 3.84 µM in assay [2], above 50 µM in assay [3] and above 50 µM in assay [4].

As a reminder, the IC50 is the concentration that inhibits the measured activity by half. A higher IC50 goes with weaker potency.
